Key:
[1] = system: rice blast; experiment: microbe, parasite or virus in culture; format: cell-based; conditions: Pyricularia oryzae, read-out: inhibition rate against rice blast, 25 ppm, in vitro
[2] = system: Diamond back moth; experiment: insecticidal activity against diamond back moth, airbrush spray; format: in vivo; conditions: for pest or weed control at 10 µg/mL: 10 mg/L; for pest or weed control at 100 µg/mL: 100 mg/L; for pest or weed control at 600 µg/mL: 600 mg/L
Procedure, shortened: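 Airbrush leaf-disc spray test: both faces of 2 cm cabbage discs received 0.5 ml of test solution at 0.7 kg/cm^2. Solutions were made in acetone:methanol (1:1) and brought to concentration with 0.1% Tween 80 in water. Ten second-instar larvae per disc, triplicates, were held at 25° C and 60˜70% R.H., with mortality recorded at 72 hrs.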

[3] = system: corn rust; experiment: protectant activity in vivo against corn rust; conditions: for pest or weed control at 0.4 µg/mL: read-out: control effect against corn rust (%), 0.4 mg/L; for pest or weed control at 0.4 µg/mL / pest or weed control at 1.6 µg/mL / pest or weed control at 6.25 µg/mL / pest or weed control at 25 µg/mL / pest or weed control at 100 µg/mL / pest or weed control at 400 µg/mL: protectant activity; for pest or weed control at 1.6 µg/mL: read-out: control effect against corn rust (%), 1.6 mg/L; for pest or weed control at 6.25 µg/mL: read-out: control effect against corn rust (%), 6.25 mg/L; for pest or weed control at 25 µg/mL: read-out: control effect against corn rust (%), 25 mg/L; for pest or weed control at 100 µg/mL: read-out: control effect against corn rust (%), 100 mg/L; for pest or weed control at 400 µg/mL: read-out: control effect against corn rust (%), 400 mg/L
[4] = system: Green peach aphids (Myzus Persicae Sulzer); experiment: bioactivity test against green peach aphid, airbrush foliar spray; format: in vivo; conditions: for pest or weed control at 2.5 µg/mL / pest or weed control at 5 µg/mL / pest or weed control at 10 µg/mL / pest or weed control at 100 µg/mL / pest or weed control at 600 µg/mL / Insecticidal activity against peach aphid (%): contrastive test; for pest or weed control at 2.5 µg/mL / pest or weed control at 5 µg/mL / pest or weed control at 10 µg/mL / pest or weed control at 100 µg/mL / pest or weed control at 600 µg/mL: read-out: Insecticidal activity against peach aphid (%)
Procedure, shortened: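 Aphids (15-30 per cabbage leaf disc) on moist filter paper were airbrush-sprayed at 10 psi, 0.5 mL, with compound from acetone:methanol (1:1) diluted in water with 0.1% tween 80. Held at 25±1 C, 60±5% RH; survivors counted after 48 hrs to give death rates.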

[5] = system: armyworm; experiment: bioactivity test against armyworm, airbrush spray; format: in vivo; conditions: 72 h, read-out: Insecticidal activity against armyworm (%); for pest or weed control at 10 µg/mL: 10 mg/L; for pest or weed control at 100 µg/mL: 100 mg/L; for pest or weed control at 600 µg/mL: 600 mg/L
[6] = system: wheat powdery mildew; experiment: protectant activity in vivo against wheat powdery mildew
[7] = system: carmine spider mite; experiment: bioactivity test against carmine spider mite, airbrush spray; format: in vivo; conditions: for control against carmine spider mite: mortality after 72 hrs
Procedure, shortened: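 Broadbean seedlings infested with adult mites were sprayed with compound (acetone/methanol stock diluted in 0.1% Tween 80 water) by airbrush at 0.7 kg/cm^2, 0.5 ml. Three replicates were run. Mortality was scored after 72 hrs.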

[8] = system: cucumber downy mildew; experiment: protectant activity in vivo against cucumber downy mildew
[9] = Myzus persicae, foliar, 48 h, 2.5 mg/L
[10] = Myzus persicae, foliar, 48 h, 5 mg/L
[11] = Myzus persicae, foliar, 48 h, 10 mg/L
[12] = Myzus persicae, foliar, 48 h, 100 mg/L
[13] = Myzus persicae, foliar, 48 h, 600 mg/L

Structure (SMILES): CCc1ncnc(NC(C)c2ccc(Oc3ccc(C(F)(F)F)cn3)cc2)c1Cl (stereo not shown) [CK40, reference compound]
- inhibition at 25 ppm [1]: < 50%
- pest or weed control at 10 µg/mL ([2]; 72 h): 13%
- pest or weed control at 100 µg/mL ([2]; 72 h): 29%
- pest or weed control at 600 µg/mL ([2]; 72 h): 100%
- pest or weed control at 0.4 µg/mL ([3]; Zea mays, 168 h): 0%
- pest or weed control at 1.6 µg/mL ([3]; Zea mays, 168 h): 30%
- pest or weed control at 6.25 µg/mL ([3]; Zea mays, 168 h): 70%
- pest or weed control at 25 µg/mL ([3]; Zea mays, 168 h): 90%
- pest or weed control at 100 µg/mL ([3]; Zea mays, 168 h): 100%
- pest or weed control at 400 µg/mL ([3]; Zea mays, 168 h): 100%
- pest or weed control at 2.5 µg/mL [4, 9]: 0%
- pest or weed control at 5 µg/mL [4, 10]: 27%
- pest or weed control at 10 µg/mL [4, 11]: 72%
- pest or weed control at 100 µg/mL [4, 12]: 100%
- pest or weed control at 600 µg/mL [4, 13]: 100%
- pest or weed control at 10 µg/mL [5]: 0%
- pest or weed control at 100 µg/mL [5]: 6%
- pest or weed control at 600 µg/mL [5]: 43%

Structure (SMILES): CCC(Nc1ncnc(C)c1Cl)c1ccc(Oc2ccc(C(F)(F)F)cn2)cc1 (stereo not shown) [CK41, reference compound]
- pest or weed control at 6.25 µg/mL ([6]; Triticum aestivum, 168 h, read-out: control effect against wheat powdery mildew (%), 6.25 mg/L, protectant activity): 0%
- pest or weed control at 25 µg/mL ([6]; Triticum aestivum, 168 h, read-out: control effect against wheat powdery mildew (%), 25 mg/L, protectant activity): 50%
- pest or weed control at 100 µg/mL ([6]; Triticum aestivum, 168 h, read-out: control effect against wheat powdery mildew (%), 100 mg/L, protectant activity): 70%
- pest or weed control at 400 µg/mL ([6]; Triticum aestivum, 168 h, read-out: control effect against wheat powdery mildew (%), 400 mg/L, protectant activity): 100%
- pest or weed control at 10 µg/mL ([7]; Tetranychus cinnabarinus, 72 h, 10 mg/L, contrastive test, read-out: Insecticidal activity against carmine spider mite (% )): 0%
- pest or weed control at 100 µg/mL ([7]; Tetranychus cinnabarinus, 72 h, 100 mg/L, contrastive test, read-out: Insecticidal activity against carmine spider mite (% )): 99%
- pest or weed control at 600 µg/mL ([7]; Tetranychus cinnabarinus, 72 h, 600 mg/L, contrastive test, read-out: Insecticidal activity against carmine spider mite (% )): 100%
- inhibition at 25 ppm [1]: < 50%
- pest or weed control at 10 µg/mL ([2]; 72 h): 0%
- pest or weed control at 100 µg/mL ([2]; 72 h): 53%
- pest or weed control at 600 µg/mL ([2]; 72 h): 86%
- pest or weed control at 0.4 µg/mL ([3]; Zea mays, 168 h): 0%
- pest or weed control at 1.6 µg/mL ([3]; Zea mays, 168 h): 20%
- pest or weed control at 6.25 µg/mL ([3]; Zea mays, 168 h): 80%
- pest or weed control at 25 µg/mL ([3]; Zea mays, 168 h): 90%
- pest or weed control at 100 µg/mL ([3]; Zea mays, 168 h): 100%
- pest or weed control at 400 µg/mL ([3]; Zea mays, 168 h): 100%
- pest or weed control at 2.5 µg/mL [4, 9]: 0%
- pest or weed control at 5 µg/mL [4, 10]: 15%
- pest or weed control at 10 µg/mL [4, 11]: 23%
- pest or weed control at 100 µg/mL [4, 12]: 97%
- pest or weed control at 600 µg/mL [4, 13]: 100%
- pest or weed control at 10 µg/mL [5]: 0%
- pest or weed control at 100 µg/mL [5]: 0%
- pest or weed control at 600 µg/mL [5]: 100%

Structure (SMILES): CCc1ncnc(NCCc2ccc(Oc3ccc(C(F)(F)F)cn3)cc2)c1Cl [Compound I-254]
- protectant activity against cucumber downy mildew in vivo ([8]; 100 ppm): 100%
- protectant activity against cucumber downy mildew in vivo ([8]; 400 ppm): 100%
- pest or weed control at 50 ppm ([8]; Cucumis sativus, 168 h, read-out: protectant activity against cucumber downy mildew in vivo, 50 ppm): 100%
- control effect against wheat powdery mildew (%) ([6]; 6.25 mg/L, protectant activity): 100%
- control effect against wheat powdery mildew (%) ([6]; 25 mg/L, protectant activity): 100%
- control effect against wheat powdery mildew (%) ([6]; 100 mg/L, protectant activity): 100%
- control effect against wheat powdery mildew (%) ([6]; 400 mg/L, protectant activity): 100%
- protectant activity against wheat powdery mildew in vivo ([6]; 100 ppm): 100%
- protectant activity against wheat powdery mildew in vivo ([6]; 400 ppm): 100%
- pest or weed control at 1.6 µg/mL ([6]; Triticum aestivum, 168 h, read-out: control effect against wheat powdery mildew (%), 1.6 mg/L, protectant activity): 20%
- Insecticidal activity against carmine spider mite (% ) ([7]; 2.5 mg/L): 79%
- Insecticidal activity against carmine spider mite (% ) ([7]; 5 mg/L): 93%
- Insecticidal activity against carmine spider mite (% ) ([7]; 10 mg/L, contrastive test): 97%
- Insecticidal activity against carmine spider mite (% ) ([7]; 100 mg/L, contrastive test): 100%
- Insecticidal activity against carmine spider mite (% ) ([7]; 600 mg/L, contrastive test): 100%
- control against carmine spider mite ([7]; 10 ppm): 100%
- control against carmine spider mite ([7]; 100 ppm): 100%
- control against carmine spider mite ([7]; 600 ppm): 100%
- inhibition at 25 ppm [1]: 80 to 99%
- control (test results against diamond back moth) ([2]; 600 ppm, mortality after 72 hrs): 100%
- pest or weed control at 100 ppm ([2]; 72 h, 100 ppm, mortality after 72 hrs, read-out: control (test results against diamond back moth)): 100%
- protectant activity against corn rust in vivo ([3]; 100 ppm): 100%
- protectant activity against corn rust in vivo ([3]; 400 ppm): 100%
- pest or weed control at 0.4 µg/mL ([3]; Zea mays, 168 h): 40%
- pest or weed control at 1.6 µg/mL ([3]; Zea mays, 168 h): 95%
- pest or weed control at 6.25 µg/mL ([3]; Zea mays, 168 h): 100%
- pest or weed control at 25 µg/mL ([3]; Zea mays, 168 h): 100%
- pest or weed control at 100 µg/mL ([3]; Zea mays, 168 h): 100%
- pest or weed control at 400 µg/mL ([3]; Zea mays, 168 h): 100%
- pest or weed control at 6.25 ppm ([3]; Zea mays, 168 h, read-out: protectant activity against corn rust in vivo, 6.25 ppm): 100%
- pest or weed control at 25 ppm ([3]; Zea mays, 168 h, read-out: protectant activity against corn rust in vivo, 25 ppm): 100%
- Insecticidal activity against peach aphid (%) ([4]; 1.25 mg/L): 100%
- Insecticidal activity against peach aphid (%) ([4]; 2.5 mg/L): 100%
- Insecticidal activity against peach aphid (%) ([4]; 5 mg/L): 100%
- Insecticidal activity against peach aphid (%) ([4]; 10 mg/L): 100%
- Insecticidal activity against peach aphid (%) ([4]; 100 mg/L): 100%
- Insecticidal activity against peach aphid (%) ([4]; 600 mg/L): 100%
- control (test results against green peach aphid) ([4]; 5 ppm, death rate after 48 hrs): 100%
- control (test results against green peach aphid) ([4]; 10 ppm, death rate after 48 hrs): 100%
- control (test results against green peach aphid) ([4]; 100 ppm, death rate after 48 hrs): 100%
- control (test results against green peach aphid) ([4]; 600 ppm, death rate after 48 hrs): 100%
- pest or weed control at 2.5 ppm ([4]; Myzus persicae, foliar, 48 h, 2.5 ppm, death rate after 48 hrs): 100%

— US9770026B2, “Substituted pyrimidine compound and uses thereof” (Shenyang Sinochem Agrochemicals R&D Co., Ltd., priority 2012, dated 2017)
